# How the values were obtained:
# Format in all cases: cell-based, human
# [1] = tested on: HCT116 cells; test: BrdU incorporation / 7-amino-actinomycin D FACS analysis; conditions: for cells with a hyperploid DNA content (>4.v): ADR 24 hours
# Procedure: Given the increased sensitivity to DNA damage upon RPS27L depletion, the inventors next investigated whether loss of RPS27L could impair the DNA damage checkpoint. […] However, parental cells underwent a dramatic decrease in DNA synthesis (from 85% to 11%) 24 hours after ADR treatment, whereas in HCT116 cells lacking RPS27L, this decrease in DNA synthesis was partially rescued (from 86% to 27%) (FIG. 5A).
# (§1) Cells cycle analysis was performed by DNA content quantification. The cells were fixed with 70% ethanol and stained with propidium iodide (50 μg/ml) staining. The stained cells were analyzed by FACScalibur (BD Bioscience). For the BrdU incorporation assay and mitochondrial membrane potential detection, the BrdU Flow Kit and JC-1 staining kit (both from BD Bioscience) were used, respectively, following the instruction manual. Stained cells were analyzed by FACScalibur (BD Bioscience) and quantified by using CellQuest software (BD Bioscience).
# [2] = tested on: p21; test: Immunoblot of p21 in U2OS cells with transient RPS27L knockdown; conditions: RPS27L knocked down by transient transfection, ADR (1 μM) 24 hours
# Procedure: As RPS27L depletion sensitizes only p53 wild-type cells to DNA damage, the inventors next assessed the effect of RPS27L loss on p53 signaling pathway. The effects of RPS27L depletion on p53 and its downstream targets p21, puma and MDM2 was examined by immunoblot analysis. […] By contrast, p53-dependent activation of Puma and MDM2 were not decreased upon RPS27L loss.
# (§2) Cells were harvested and lysed with RIPA buffer (50 mM Tris-HCl, pH7.4, 1 mM EDTA, 150 mM NaCl, 1% Nonidet P-40, 0.5% sodium deoxycholate and proteinase inhibitors). The lysates were clarified by centrifugation at 16,000×g for 15 minutes at 4° C. Protein concentrations were determined with the Bradford Protein Assay Kit (Bio-Rad). 20-50 μg protein samples were separated by SDS-PAGE, transferred onto an Immobilon membrane (Millipore) and blotted with antibodies. Anti-p53 and anti-p21 antibodies were from Santa Cruz; anti-MDM2 and anti-Puma antibodies were from Merck. The rabbit polyconal antibody to RPS27L was raised against a 14 amino acid peptide from human RPS27L (SEQ ID NO: 2: LHPSLEEEKKKHKK).
# [3] = tested on: HCT116 cells; test: JC-1 staining, mitochondrial membrane potential by flow cytometry; conditions: control HCT116 cells, ADR treatment
# Procedure: To further define the nature of this cell death response the inventors used another assay, namely flow cytometric detection of cells stained with JC-1. The JC-1-staining identifies cell death events as a result of loss of mitochondria membrane potential (ΔΨm).
# as §1
# [4] = tested on: p53 and p21; test: Western blot of p53 and p21 protein levels in HCT116 cells; conditions: ADR (1 μM), 5-FU (375 μM), nutlin-3 (10 μM)
# Procedure: To investigate whether the p53-induced increase in RPS27L mRNA also gives rise to the increased protein levels, immunoblot analysis of p53 wild-type and p53 null HCT116 cells treated with ADR, 5-FU or nutlin-3, a small molecule MDM2 antagonist that directly activates p53 (Vassilev, L. T., Vu, B. T., et al. (2004) “In vivo activation of the p53 pathway by small-molecule antagonists of MDM2” Science, vol. 303, p. 844-848) was performed. […] To extend this observations to other cell lines and to other p53 stimuli, U2OS (human osteosarcoma cell line) and SH-SY5Y (human neuroblastoma cell line) cells (p53 wild type) as well as Saos-2 cells (human osteosarcoma cell line, p53-deficient) were treated with ADR, etoposide phosphate (VP16®) and 5-FU (FIG. 2B). […] Obviously, 5-FU treatment activates a posttranslational mechanism that causes RPS27L protein downregulation in spite of the increased mRNA expression.
# as §2
# [5] = tested on: HCT116 cells; test: Cell cycle and apoptosis analysis by flow cytometry (sub-G1 DNA content)
# Procedure: as §1
structure (smiles),measurement,setting,value
"COc1cccc2c1C(=O)c1c(O)c3c(c(O)c1C2=O)C[C@@](O)(C(=O)CO)C[C@@H]3O[C@H]1C[C@H](N)[C@H](O)[C@H](C)O1 [ADR, adriamycin]","DNA synthesis (BrdU, cells in S-phase)","[1]; HCT116 cells lacking RPS27L, 24 hours after ADR treatment (86% before)",27%
same,cells with a hyperploid DNA content (>4.v),[1]; RPS27L-depleted HCT116 cells,30%
same,cells with a hyperploid DNA content (>4.v),[1]; control HCT116 cells,10.5%
same,hyperploid population,[1]; p21-depleted HCT116 cells after ADR treatment,no increased hyperploid population
same,"DNA synthesis (BrdU, cells in S-phase)","[1]; parental (control) HCT116 cells, 24 hours after ADR treatment (85% before)",11%
same,p21 protein level,[2],substantial decrease
same,percentage of cells with lower membrane potential (ΔΨm),[3],13.5%
same,p53 and p21 protein,[4],accumulation of p53 and p21
same,cell cycle and apoptosis response,"[5]; HCT116 p53+/+ and p53−/−, ADR (1 μM) or 5-FU (375 μM) for 48 h",p53-dependent cell cycle arrest
same,cell death (sub-G1 DNA content),"[5]; RPS27L depletion in p53 null HCT116 cells, ADR 48 h",did not give rise to the same result
same,cellular response,"[5]; p53 wild-type HCT116 expressing control shRNA, ADR 48 h",growth arrest response

# Reference: patent publication US20090137517A1, “SENSITIZING A CELL TO CANCER TREATMENT BY MODULATING THE ACTIVITY OF A NUCLEIC ACID ENCODING RPS27L PROTEIN” (Agency for Science, Technology and Research, priority 2006, published 2009)
